In one experiment the target is BTK (Homo sapiens, UniProt Q06187). The experiment in a line: BTK Enzyme Assay. In kind it is biochemical. The note with it: 1 uM compound; read-out: BTK (% inh @ 1 uM). The procedure:
The following TABLE II lists compounds representative of the invention and their activity in BTK assays. In these assays, the following grading was used: A: >30% inhibition @1 μM; B: <30% inhibition @1 μM.

The next experiment has as its target EGFR T790M (Homo sapiens, UniProt P00533, T790M). The experiment in a line: EGFR Enzyme Assay. In kind it is biochemical. The note with it: 1 uM compound, read-out: T790M (% inh @ 1 uM). The procedure:
The following TABLE III lists compounds representative of the invention and their activity in EGFR assays. In these assays, the following grading was used: A: >50% @1 μM; B: <50% @ 1 μM.

Each structure is given as a SMILES string.

Sequence of BTK (Q06187 whole entry): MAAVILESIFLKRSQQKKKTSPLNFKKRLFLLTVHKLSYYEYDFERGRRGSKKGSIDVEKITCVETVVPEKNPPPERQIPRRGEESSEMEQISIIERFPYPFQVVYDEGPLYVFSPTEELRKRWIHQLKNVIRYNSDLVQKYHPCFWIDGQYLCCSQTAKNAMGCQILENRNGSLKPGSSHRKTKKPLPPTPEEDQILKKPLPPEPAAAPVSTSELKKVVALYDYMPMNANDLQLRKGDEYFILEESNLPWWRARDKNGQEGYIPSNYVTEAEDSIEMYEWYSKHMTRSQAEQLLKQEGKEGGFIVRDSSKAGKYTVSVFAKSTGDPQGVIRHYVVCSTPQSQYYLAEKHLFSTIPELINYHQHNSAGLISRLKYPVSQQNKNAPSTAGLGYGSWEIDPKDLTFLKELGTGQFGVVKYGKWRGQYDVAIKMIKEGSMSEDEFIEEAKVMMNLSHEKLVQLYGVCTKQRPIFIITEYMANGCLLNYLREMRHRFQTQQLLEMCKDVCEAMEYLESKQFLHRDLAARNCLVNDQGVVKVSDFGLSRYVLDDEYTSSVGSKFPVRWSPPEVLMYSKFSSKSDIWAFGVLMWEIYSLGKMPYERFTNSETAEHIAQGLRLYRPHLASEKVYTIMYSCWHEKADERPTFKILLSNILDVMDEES
Sequence of EGFR T790M (P00533 25-1210 T790M): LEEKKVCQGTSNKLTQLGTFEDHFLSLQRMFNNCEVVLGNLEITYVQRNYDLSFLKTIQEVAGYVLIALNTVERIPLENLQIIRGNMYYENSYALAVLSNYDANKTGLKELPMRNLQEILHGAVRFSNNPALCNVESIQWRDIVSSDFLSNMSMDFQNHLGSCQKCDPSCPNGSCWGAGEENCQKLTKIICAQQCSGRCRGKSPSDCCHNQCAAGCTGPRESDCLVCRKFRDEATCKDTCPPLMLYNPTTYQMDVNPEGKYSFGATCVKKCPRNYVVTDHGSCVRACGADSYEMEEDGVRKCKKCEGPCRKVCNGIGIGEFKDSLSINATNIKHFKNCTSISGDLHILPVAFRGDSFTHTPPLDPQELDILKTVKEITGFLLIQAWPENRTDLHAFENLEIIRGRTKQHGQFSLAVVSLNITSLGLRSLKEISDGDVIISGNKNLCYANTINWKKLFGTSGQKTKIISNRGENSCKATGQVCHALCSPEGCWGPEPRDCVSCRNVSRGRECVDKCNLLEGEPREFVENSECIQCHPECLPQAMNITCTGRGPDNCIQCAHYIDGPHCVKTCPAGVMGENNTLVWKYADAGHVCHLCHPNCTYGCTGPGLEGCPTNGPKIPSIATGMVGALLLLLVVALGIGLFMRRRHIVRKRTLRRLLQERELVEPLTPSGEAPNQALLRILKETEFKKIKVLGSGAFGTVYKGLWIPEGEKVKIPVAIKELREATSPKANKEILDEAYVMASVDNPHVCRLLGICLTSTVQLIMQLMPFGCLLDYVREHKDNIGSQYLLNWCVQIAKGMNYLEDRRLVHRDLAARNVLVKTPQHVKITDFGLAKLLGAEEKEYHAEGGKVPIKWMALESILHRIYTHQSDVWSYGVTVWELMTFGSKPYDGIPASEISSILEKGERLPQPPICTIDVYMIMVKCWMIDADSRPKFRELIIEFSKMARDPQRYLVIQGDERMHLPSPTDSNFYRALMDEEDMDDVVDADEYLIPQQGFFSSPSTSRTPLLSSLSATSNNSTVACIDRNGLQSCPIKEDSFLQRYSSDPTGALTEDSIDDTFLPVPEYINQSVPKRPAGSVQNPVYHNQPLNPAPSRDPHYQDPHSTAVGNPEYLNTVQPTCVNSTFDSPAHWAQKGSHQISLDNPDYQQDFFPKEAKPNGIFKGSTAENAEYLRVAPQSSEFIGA

Turning to `C=CC(=O)Nc1cc(Nc2nc(-c3c[nH]c4ccccc34)c3sccc3n2)c(OC)cc1N(C)CCN(C)C` [Compound 1, N-[2-[2-(dimethylamino)ethyl-methyl-amino]-5-[[4-(1H-indol-3-yl)thieno[3,2-d]pyrimidin-2-yl]amino]-4-methoxy-phenyl]prop-2-enamide], the inhibition at 1 µM on BTK was greater than 30%; at EGFR T790M it was greater than 50%.
In the case of `C=CC(=O)Nc1cc(Nc2nc(-c3c[nH]c4ccccc34)c3sccc3n2)c(OC)cc1N1CCC(N(C)C)CC1` [Compound 2, N-[2-[4-(dimethylamino)-1-piperidyl]-5-[[4-(1H-indol-3-yl)thieno[3,2-d]pyrimidin-2-yl]amino]-4-methoxy-phenyl]prop-2-enamide], the inhibition at 1 µM on BTK is greater than 30%; on EGFR T790M, greater than 50%.
For `C=CC(=O)Nc1cc(NC2=NC(c3cccc(NC(C)(C)C)c3)C3SC=CC3=N2)c(OC)cc1N(C)C` (stereo not shown) [Compound 5, N-[5-[[4-[3-(tert-butylamino)phenyl]-4,4a-dihydrothieno[3,2-d]pyrimidin-2-yl]amino]-2-(dimethylamino)-4-methoxy-phenyl]prop-2-enamide], the inhibition at 1 µM on BTK was greater than 30%; at EGFR T790M it was greater than 50%.
Turning to `C=CC(=O)Nc1cc(NC2=NC(c3cccc(N(C)C)c3)C3SC=CC3=N2)c(OC)cc1N1CCN(C)CC1` (stereo not shown) [Compound 6, N-[5-[[4-[3-(dimethylamino)phenyl]-4,4a-dihydrothieno[3,2-d]pyrimidin-2-yl]amino]-4-methoxy-2-(4-methylpiperazin-1-yl)phenyl]prop-2-enamide], the inhibition at 1 µM on BTK was greater than 30%; at EGFR T790M it was less than 50%.
For the compound `C=CC(=O)Nc1cc(NC2=NC(c3cccc(NC)c3)C3SC=CC3=N2)c(OC)cc1N(C)CCN1CCOCC1` (stereo not shown) [Compound 9, N-[4-methoxy-5-[[4-[3-(methylamino)phenyl]-4,4a-dihydrothieno[3,2-d]pyrimidin-2-yl]amino]-2-[methyl(2-morpholinoethyl)amino]phenyl]prop-2-enamide], the inhibition at 1 µM on BTK was greater than 30%; at EGFR T790M it was less than 50%.
With `C=CC(=O)Nc1cc(NC2=NC(c3cccc(N(C)C)c3)C3SC=CC3=N2)c(OC)cc1N1CCOCC1` (stereo not shown) [Compound 10, N-[5-[[4-[3-(dimethylamino)phenyl]-4,4a-dihydrothieno[3,2-d]pyrimidin-2-yl]amino]-4-methoxy-2-morpholino-phenyl]prop-2-enamide], the inhibition at 1 µM is greater than 30% at BTK and greater than 50% on EGFR T790M.
In the same order, the values of `C=CC(=O)Nc1cc(NC2=NC(c3ccccc3)C3SC=CC3=N2)c(OC)cc1N1CCN(C)CC1` (stereo not shown) [Compound 18, N-[4-methoxy-2-(4-methylpiperazin-1-yl)-5-[(4-phenyl-4,4a-dihydrothieno[3,2-d]pyrimidin-2-yl)amino]phenyl]prop-2-enamide] are less than 30% and greater than 50%.
For `C=CC(=O)Nc1cc(Nc2nc(-c3cccc(N(C)C)c3)c3sccc3n2)c(OC)cc1N1CCN(C)CC1` [Compound 24, N-[5-[[4-[3-(dimethylamino)phenyl]thieno[3,2-d]pyrimidin-2-yl]amino]-4-methoxy-2-(4-methylpiperazin-1-yl)phenyl]prop-2-enamide] the same measures were greater than 30% and less than 50%.
`C=CC(=O)Nc1cc(Nc2nc(-c3ccccc3)c3sccc3n2)c(OC)cc1N1CCN(C)CC1` [Compound 26, N-[4-methoxy-2-(4-methylpiperazin-1-yl)-5-[(4-phenylthieno[3,2-d]pyrimidin-2-yl)amino]phenyl]prop-2-enamide]: the results for the inhibition at 1 µM on BTK and on EGFR T790M were greater than 30% and less than 50%, respectively.
Consider `C=CC(=O)Nc1cc(Nc2nc(-c3cccc(NC)c3)c3sccc3n2)c(OC)cc1OCCN1CCOCC1` [Compound 35, N-[4-methoxy-5-[[4-[3-(methylamino)phenyl]thieno[3,2-d]pyrimidin-2-yl]amino]-2-(2-morpholinoethoxy)phenyl]prop-2-enamide], for which the inhibition at 1 µM on BTK was less than 30%; at EGFR T790M, greater than 50%.
As to `C=CC(=O)Nc1cc(Nc2nc(-c3cn(C)c4ccccc34)c3sccc3n2)c(OC)cc1N1CCOCC1` [Compound 36, N-[4-methoxy-5-[[4-(1-methylindol-3-yl)thieno[3,2-d]pyrimidin-2-yl]amino]-2-morpholino-phenyl]prop-2-enamide], the results for the inhibition at 1 µM on BTK and at EGFR T790M were greater than 30% and less than 50%, respectively.
In the same order, the values of `C=CC(=O)Nc1cc(Nc2nc(-c3ccc(NC)cc3)c3sccc3n2)c(OC)cc1N1CCOCC1` [Compound 37, N-[4-methoxy-5-[[4-[4-(methylamino)phenyl]thieno[3,2-d]pyrimidin-2-yl]amino]-2-morpholino-phenyl]prop-2-enamide] are greater than 30% and greater than 50%.
For `C=CC(=O)Nc1cc(Nc2nc(-c3cccc(NC)c3)c3ccsc3n2)c(OC)cc1N(C)CC` [Compound 41, N-[2-[ethyl(methyl)amino]-4-methoxy-5-[[4-[3-(methylamino)phenyl]thieno[2,3-d]pyrimidin-2-yl]amino]phenyl]prop-2-enamide], the inhibition at 1 µM on BTK is greater than 30%; on EGFR T790M it was greater than 50%.
Consider `C=CC(=O)Nc1cc(Nc2nc(-c3ccccc3NC)c3ccsc3n2)c(OC)cc1N1CCN(C)CC1` [Compound 43, N-[4-methoxy-5-[[4-[2-(methylamino)phenyl]thieno[2,3-d]pyrimidin-2-yl]amino]-2-(4-methylpiperazin-1-yl)phenyl]prop-2-enamide], for which the inhibition at 1 µM at BTK was less than 30%; at EGFR T790M, less than 50%.
`C=CC(=O)Nc1cc(Nc2nc(-c3cccc4cc[nH]c34)c3sccc3n2)c(OC)cc1N1CCN(C)CC1` [Compound 45, N-[5-[[4-(1H-indol-7-yl)thieno[3,2-d]pyrimidin-2-yl]amino]-4-methoxy-2-(4-methylpiperazin-1-yl)phenyl]prop-2-enamide]: the inhibition at 1 µM at BTK is less than 30%.
As for `C=CC(=O)Nc1cc(Nc2nc(-c3ccn(C)c3)c3ccsc3n2)c(OC)cc1N1CCN(C)CC1` [Compound 46, N-[4-methoxy-2-(4-methylpiperazin-1-yl)-5-[[4-(1-methylpyrrol-3-yl)thieno[2,3-d]pyrimidin-2-yl]amino]phenyl]prop-2-enamide], the inhibition at 1 µM at BTK is greater than 30%.
On to `C=CC(=O)Nc1cc(Nc2nc(-c3cc[nH]c3)c3ccsc3n2)c(OC)cc1N1CCN(C)CC1` [Compound 47, N-[4-methoxy-2-(4-methylpiperazin-1-yl)-5-[[4-(1H-pyrrol-3-yl)thieno[2,3-d]pyrimidin-2-yl]amino]phenyl]prop-2-enamide], for which the inhibition at 1 µM at BTK was less than 30%.
For the compound `C=CC(=O)Nc1cc(Nc2nc(-c3ccn(C)c3)c3sccc3n2)c(OC)cc1N1CCN(C)CC1` [Compound 48, N-[4-methoxy-2-(4-methylpiperazin-1-yl)-5-[[4-(1-methylpyrrol-3-yl)thieno[3,2-d]pyrimidin-2-yl]amino]phenyl]prop-2-enamide], at BTK, the inhibition at 1 µM was greater than 30%.
`C=CC(=O)Nc1cc(Nc2nc(-c3cc[nH]c3)c3sccc3n2)c(OC)cc1N1CCN(C)CC1` [Compound 49, N-[4-methoxy-2-(4-methylpiperazin-1-yl)-5-[[4-(1H-pyrrol-3-yl)thieno[3,2-d]pyrimidin-2-yl]amino]phenyl]prop-2-enamide]: the inhibition at 1 µM at BTK is greater than 30%.
In the case of `C=CC(=O)Nc1cc(Nc2nc(-c3ccccc3N(C)C)c3ccsc3n2)c(OC)cc1N1CCN(C)CC1` [Compound 50, N-[5-[[4-[2-(dimethylamino)phenyl]thieno[2,3-d]pyrimidin-2-yl]amino]-4-methoxy-2-(4-methylpiperazin-1-yl)phenyl]prop-2-enamide], the inhibition at 1 µM on BTK is greater than 30%; on EGFR T790M, less than 50%.
For `C=CC(=O)Nc1cc(N(C)c2nc(-c3c[nH]c4ccccc34)c3sccc3n2)c(OC)cc1N1CCOCC1` [Compound 51, N-[5-[[4-(1H-indol-3-yl)thieno[3,2-d]pyrimidin-2-yl]-methyl-amino]-4-methoxy-2-morpholino-phenyl]prop-2-enamide], on BTK, the inhibition at 1 µM is less than 30%.
Consider `C=CC(=O)Nc1cc(N(C)c2nc(-c3cn(C)c4ccccc34)c3sccc3n2)c(OC)cc1N1CCOCC1` [Compound 52, N-[4-methoxy-5-[methyl-[4-(1-methylindol-3-yl)thieno[3,2-d]pyrimidin-2-yl]amino]-2-morpholino-phenyl]prop-2-enamide], for which the inhibition at 1 µM on BTK is less than 30%; on EGFR T790M it was less than 50%.
Take `C=CC(=O)Nc1cc(N(C)c2nc(-c3c[nH]c4ccccc34)c3sccc3n2)c(OC)cc1N(C)CCN(C)C` [Compound 53, N-[2-[2-(dimethylamino)ethyl-methyl-amino]-5-[[4-(1H-indol-3-yl)thieno[3,2-d]pyrimidin-2-yl]-methyl-amino]-4-methoxy-phenyl]prop-2-enamide]: the inhibition at 1 µM at BTK is greater than 30%.
Turning to `C=CC(=O)Nc1cc(N(C)c2nc(-c3cn(C)c4ccccc34)c3sccc3n2)c(OC)cc1N(C)CCN(C)C` [Compound 54, N-[2-[2-(dimethylamino)ethyl-methyl-amino]-4-methoxy-5-[methyl-[4-(1-methylindol-3-yl)thieno[3,2-d]pyrimidin-2-yl]amino]phenyl]prop-2-enamide], the inhibition at 1 µM at BTK was less than 30%.

The record behind these values is US10844074B2, “Heterocycle compounds and uses thereof” (ZHEJIANG JIANFENG-YIEN BIOTECHNOLOGY CO., LTD., priority 2015, dated 2020).
